Test results as given in US10259823B2, “GLP-1 receptor modulators” (Celgene International II SÀRL, priority 2013, dated 2019).

Target: T1, GLP-1R (Homo sapiens, UniProt P43220)
T1 construct: host or cells: CRE-bla CHO-K1
Assay: EC20 GLP-1(9-36) PAM cAMP assay: dose response of compound in the presence of fixed concentration of GLP-1(9-36)
Assay type: cell-based
Conditions: GLP-1R CRE-bla CHO-K1 cells, compound dose response with fixed GLP-1(9-36), 30 min at 37° C.
Protocol: EC20 GLP-1(9-36) PAM cAMP assay: dose response of compound in the presence of fixed concentration of GLP-1 (9-36).
GLP-1R CRE-bla CHO-K1 cells cultured in growth medium (DMEM-High glucose, 10% dialyzed FBS, 0.1 mM NEAA, 25 mM Hepes, 100 U/mL penicillin/100 μg/mL streptomycin, 5 μg/mL Blasticidin, 600 μg/mL Hygromycin) were trypsinized and plated in suspension into 384 well white flat bottom plates at 5000 cells/well in 12 μL assay buffer (Hanks Balanced Salt solution, 10 mM hepes, 0.1% BSA, pH 7.4). A 5× compound dose response curve (12-point) was generated in assay buffer containing 1.5 mM IBMX, 4% DMSO. GLP-1(9-36) was diluted to 4.2 μM in assay buffer containing 1.5 mM IMBX and 4% DMSO. The 5× compound dose response was added (3 μL), followed by 0.5 μL of GLP-1(9-36) and cells were incubated for 30 min at 37° C. Direct detection of cAMP was carried out using DiscoveRx HitHunter cAMP kit according to manufacturer's instructions and luminescence was read using a SpectraMax M5 plate reader. Luminescence was converted to total cAMP using a cAMP standard curve and data was analyzed by non-linear regression to determine the EC50 and Emax.
GLP-1(7-36): […]-NH2 (SEQ ID NO: GLP-1(9-36): […]-NH2(SEQ ID NO: 3) GLP-1(7-36) was purchased from GenScript. GLP-1(9-36) was purchased from Biopeptide Co., Inc.

T1 sequence (P43220 24-463): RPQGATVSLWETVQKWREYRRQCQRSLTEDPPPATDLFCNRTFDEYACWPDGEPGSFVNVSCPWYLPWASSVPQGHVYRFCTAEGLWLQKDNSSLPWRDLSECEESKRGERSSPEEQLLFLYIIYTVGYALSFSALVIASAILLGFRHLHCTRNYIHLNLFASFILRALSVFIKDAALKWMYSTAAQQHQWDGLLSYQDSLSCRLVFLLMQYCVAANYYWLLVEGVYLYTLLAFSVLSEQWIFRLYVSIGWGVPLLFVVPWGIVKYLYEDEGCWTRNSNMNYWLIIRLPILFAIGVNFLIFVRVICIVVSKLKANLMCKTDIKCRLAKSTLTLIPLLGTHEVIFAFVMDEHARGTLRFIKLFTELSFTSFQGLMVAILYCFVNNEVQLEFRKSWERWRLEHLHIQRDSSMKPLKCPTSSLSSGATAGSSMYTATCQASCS
T1 sequence (P01275 100-127 partner limits assumed): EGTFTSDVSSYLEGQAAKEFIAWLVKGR

| Compound | EC50 |
| --- | --- |
| CC(C)(C)c1ccc(C(=O)N[C@@H](Cc2ccc(-c3ncc(C4CCC(C(C)(C)C)CC4)cn3)cc2)C(=O)NCCC(=O)O)cc1 (some centres unmarked) [Compound 674] | 5 to 10 µM |
| C/C=C/CCCOc1ccc(-c2cnc(-c3ccc(C[C@H](NC(=O)c4ccc(C(C)(C)C)cc4)C(=O)NCCC(=O)O)cc3)nc2)cc1 [Compound 714] | 2.5 to 5 µM |
| CCCC/C=C/COc1ccc(-c2cnc(-c3ccc(C[C@H](NC(=O)c4ccc(C(C)(C)C)cc4)C(=O)NCCC(=O)O)cc3)nc2)cc1 [Compound 715] | 2.5 to 5 µM |
| CCCCCCCOC1CCN(c2cnc(-c3ccc(C[C@H](NC(=O)c4ccc(C(C)(C)C)cc4)C(=O)NCCC(=O)O)cc3)nc2)CC1 [Compound 693] | 5 to 10 µM |
| CCCCCCCOc1ccc(-c2cnc(-c3ccc(C[C@H](NC(=O)c4oc(C(C)(C)C)cc4C)C(=O)N4CC[C@H](C(=O)O)C4)cc3)nc2)cc1 [Compound 866] | 2.5 to 5 µM |
| CCCCCCCOc1ccc(-c2cnc(-c3ccc(C[C@H](NC(=O)c4ccc(OC(F)(F)F)cc4)C(=O)N[C@H](C)C(=O)O)cc3)nc2)cc1 [Compound 821] | 0.8 to 2.5 µM |
| CCCCCCCOCCc1ccc(-c2nc(-c3ccc(C(NC(=O)c4ccc(C(C)(C)C)cc4)C(=O)O)cc3)no2)cc1 (centres unmarked) [Compound 71] | 2.5 to 5 µM |
| CCCCCCCOc1ccc(-c2cnc(-c3ccc(C[C@H](NC(=O)c4ccc(C(C)(C)C)cc4)C(=O)N[C@@H](Cc4cn(C)cn4)C(=O)O)cc3)nc2)cc1 [Compound 576] | 0.8 to 2.5 µM |
| CCCCCCCOc1ccc(-c2cnc(-c3ccc(C[C@H](NC(=O)c4ccc(OC(C)C)cc4)C(=O)N[C@H](C)C(=O)O)cc3)nc2)cc1 [Compound 820] | 2.5 to 5 µM |
| CCCCCCCOc1ccc(-c2cnc(-c3ccc(C[C@H](NC(=O)[C@H]4CC[C@H](C(C)(C)C)CC4)C(=O)N4CC[C@H](C(=O)O)C4)cc3)nc2)cc1 [Compound 858] | 0.8 to 2.5 µM |
| CCCCCCCOc1ccc(-c2cnc(-c3ccc(C[C@H](NC(=O)c4ccc(C(C)(C)C)cc4)C(=O)NC[C@H]4CCNC4)cc3)nc2)cc1 [Compound 413] | 5 to 10 µM |

Other lines, results leading:

| EC50 | Compound |
| --- | --- |
| 0.8 to 2.5 µM | C[C@@H](NC(=O)[C@H](Cc1ccc(-c2ncc(-c3ccc(OCc4ccccc4)cc3F)cn2)cc1)NC(=O)c1ccc(C(C)(C)C)s1)C(=O)O [Compound 1024] |
| 0.8 to 2.5 µM | CCCCCCCOc1ccc(-c2cnc(-c3ccc(C[C@H](NC(=O)c4ccc(C(C)(C)C)s4)C(=O)N[C@H]4CCC[C@H]4C(=O)O)cc3)nc2)cc1 [Compound 382] |
| < 0.8 µM | CC(C)(C)CCCOc1ccc(-c2cnc(-c3ccc(C[C@H](NC(=O)c4ccc(C(C)(C)C)s4)C(=O)NC(C(=O)O)C(O)c4ccccc4)cc3)nc2)cc1 (some centres unmarked) [Compound 944] |
| < 0.8 µM | CCCCCCCOc1ccc(-c2cnc(-c3ccc(C[C@H](NC(=O)c4ccc(C(C)(C)C)s4)C(=O)NC(C(=O)O)c4ccc(C)cc4)cc3)nc2)cc1 (some centres unmarked) [Compound 617] |
| < 0.8 µM | CCCCCCCOc1ccc(-c2cnc(-c3ccc(C[C@H](NC(=O)c4ccc(C(C)(C)C)s4)C(=O)N[C@@H](CC(=O)NC4CC4)C(=O)O)cc3)nc2)cc1 [Compound 514] |
| < 0.8 µM | CCCCCCCOc1ccc(-c2cnc(-c3ccc(C[C@H](NC(=O)c4ccc(C(C)(C)C)cc4)C(=O)NC(CCS(C)(=O)=O)C(=O)O)cc3)nc2)cc1 (some centres unmarked) [Compound 570] |
